Test results from patent US20260274894A1, “CYCLIC POLYPEPTIDE COMPOUND AND USE THEREOF” (BIVISION PHARMACEUTICALS, INC., priority 2023, published 2026).
Numbered stars: 1 amine (or outer) side, 2 acyl side, 3 side chain; on linkers, the order of the positions; unused ones are H or OH. Bridge positions count the residues as written; N and C are the ends. Square brackets hold non-standard residues; d marks the D form. Peptide text beside a SMILES is read from it. * marks the point of attachment. X1 = O=C(O)CN1CCN(CC(=O)O)CCN(CC(=O)CCCN*)CCN(CC(=O)O)CC1; Azetidine3carboxylic = O=C(C1CN([*:1])C1)[*:2]; mXylylene = c1cc(C[*:1])cc(C[*:2])c1; CO = O=C([*:1])[*:2]; NHBu = CCCCN*

Key:
[1] = Determination of C Log P (n-octanol/water partition, gamma counts); format: physicochemical
Protocol: Two EP tubes were taken, and 100 μL of saturated n-octanol aqueous solution and 80 µL of pure water were added to each tube, respectively. […] After shaking and mixing for 2 hours, the tubes were centrifuged at room temperature at 2000 rpm/min for 5 minutes. 20 μL was taken from the upper layer (lipid layer) and lower layer (aqueous layer) of each tube, and gamma counts were measured.

HT1080 2 # = test: Therapeutic results of ^177Lu-labeled compound in tumor-bearing mice (tumor volume); format: in vivo, Balb/c Nude mice
Protocol: The body weight and tumor size were measured.

FAP protein = target: T1, FAP protein (Homo sapiens, UniProt Q12884); test: Biacore test of compound affinity to FAP protein; conditions: Biacore 8K, SA chip, 15° C., 1:1 binding model; read-out: pKD (FAP) (converted)
T1 construct: purchased Sinobiological
T1 sequence (Q12884 1-760): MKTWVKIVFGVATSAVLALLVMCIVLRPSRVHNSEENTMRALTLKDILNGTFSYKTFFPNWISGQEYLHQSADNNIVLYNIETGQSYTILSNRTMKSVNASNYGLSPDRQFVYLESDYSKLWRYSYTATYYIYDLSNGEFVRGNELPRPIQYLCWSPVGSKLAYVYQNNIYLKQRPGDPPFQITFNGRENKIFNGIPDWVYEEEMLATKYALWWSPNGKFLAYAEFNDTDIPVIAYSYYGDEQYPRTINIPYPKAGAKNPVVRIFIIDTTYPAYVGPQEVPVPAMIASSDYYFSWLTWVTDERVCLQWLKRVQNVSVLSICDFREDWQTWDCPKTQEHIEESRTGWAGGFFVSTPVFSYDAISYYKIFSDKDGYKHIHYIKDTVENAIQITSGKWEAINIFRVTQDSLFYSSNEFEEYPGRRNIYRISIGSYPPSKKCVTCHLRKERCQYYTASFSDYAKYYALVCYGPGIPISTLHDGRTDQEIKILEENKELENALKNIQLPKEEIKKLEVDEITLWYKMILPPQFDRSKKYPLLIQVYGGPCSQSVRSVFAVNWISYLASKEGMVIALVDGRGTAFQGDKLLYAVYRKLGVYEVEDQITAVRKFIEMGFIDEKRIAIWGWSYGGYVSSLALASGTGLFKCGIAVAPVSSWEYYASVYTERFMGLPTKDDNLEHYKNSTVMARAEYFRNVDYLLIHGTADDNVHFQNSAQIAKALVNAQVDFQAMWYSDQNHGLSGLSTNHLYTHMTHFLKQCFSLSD
Method in brief: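 FAP captured on an SA chip; compounds run as analyte in single-cycle kinetics at 15° C (90 s contact, 1800 s dissociation, 30 μL/min), reference-subtracted (2-1). Sensorgrams fitted to a 1:1 binding model to give KD, reported as pKD = −log KD.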

[2] = target: T2, prolyl oligopeptidase (PREP) (Homo sapiens, UniProt P48147); test: Protease inhibition (selectivity) assay, PREP, Z-Gly-Pro-AMC substrate; format: biochemical; conditions: recombinant human PREP 0.6 nM
T2 sequence (P48147 1-710): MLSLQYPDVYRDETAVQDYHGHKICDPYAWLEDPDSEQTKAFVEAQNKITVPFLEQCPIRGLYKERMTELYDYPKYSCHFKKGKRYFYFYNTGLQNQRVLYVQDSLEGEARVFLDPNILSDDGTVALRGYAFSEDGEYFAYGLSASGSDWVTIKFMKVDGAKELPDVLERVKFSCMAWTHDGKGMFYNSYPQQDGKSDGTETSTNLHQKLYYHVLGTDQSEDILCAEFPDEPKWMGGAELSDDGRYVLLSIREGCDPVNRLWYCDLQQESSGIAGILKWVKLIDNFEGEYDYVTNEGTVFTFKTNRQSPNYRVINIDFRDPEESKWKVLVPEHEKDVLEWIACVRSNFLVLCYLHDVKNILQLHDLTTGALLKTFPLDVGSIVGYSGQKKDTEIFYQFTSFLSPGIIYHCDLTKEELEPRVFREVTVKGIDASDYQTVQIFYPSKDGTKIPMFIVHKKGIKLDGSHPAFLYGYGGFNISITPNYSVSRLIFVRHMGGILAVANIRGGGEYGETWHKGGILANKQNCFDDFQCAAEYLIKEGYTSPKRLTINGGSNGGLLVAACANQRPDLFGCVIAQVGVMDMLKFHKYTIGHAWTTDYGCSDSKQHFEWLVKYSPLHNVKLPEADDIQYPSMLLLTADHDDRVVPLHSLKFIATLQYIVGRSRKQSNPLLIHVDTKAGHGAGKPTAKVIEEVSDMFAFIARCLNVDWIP
Protocol: (§1) The specificity of the synthesized compounds for recombinant human dipeptidyl peptidase IV (DPPIV), fibroblast activation protein (FAP), or prolyl oligopeptidase (PREP) was expressed by their half-maximal inhibitory concentration (IC50) against the proteases. […] No. I-1145.0050BA) in DMSO; DPPIV: 100 mM Gly-Pro-AMC (VWR, Cat. No. 100042-646) in DMSO), and the stock solution of the substrate was subsequently diluted 20-fold using the corresponding buffer described above. • 4) The enzyme was diluted into an appropriate assay buffer. […] Column 1 (A, B, C) was prepared using 200 μL of an appropriate analysis buffer as a control. Column 1 (D, E, F, G, H) was prepared with 20 μL of an appropriate assay buffer and 180 μL of the enzyme as the inhibitor-free control. • 5) Where appropriate, 20 μL of the test compound was added from the dilution plate prepared in step 2 to columns 2-10 of the assay plate. Each sample should be tested in triplicate. It was incubated at room temperature for 10 minutes, with the plate being shaken for the first two minutes. • 6) 10 μL of the 20× substrate prepared in step 3 was added to each well and incubated at room temperature for 15 minutes, with the plate being shaken for the first two minutes. • 7) Fluorescence was read at λex:380 and λem:460.

[3] = target: T3, fibroblast activation protein (FAP) (Homo sapiens, UniProt Q12884); test: Protease inhibition (selectivity) assay, FAP, Z-Gly-Pro-AMC substrate; format: biochemical; conditions: recombinant human FAP 1.2 nM
T3 sequence (Q12884 1-760): T1 sequence (Q12884 1-760)
Protocol: as §1

[4] = target: dipeptidyl peptidase IV (DPPIV) (Homo sapiens, UniProt P27487); test: Protease inhibition (selectivity) assay, DPPIV, Gly-Pro-AMC substrate; format: biochemical; conditions: recombinant human DPPIV 0.1 nM; read-out: pIC50 (DPPIV) (converted)
dipeptidyl peptidase IV (DPPIV), sequence (P27487 whole entry): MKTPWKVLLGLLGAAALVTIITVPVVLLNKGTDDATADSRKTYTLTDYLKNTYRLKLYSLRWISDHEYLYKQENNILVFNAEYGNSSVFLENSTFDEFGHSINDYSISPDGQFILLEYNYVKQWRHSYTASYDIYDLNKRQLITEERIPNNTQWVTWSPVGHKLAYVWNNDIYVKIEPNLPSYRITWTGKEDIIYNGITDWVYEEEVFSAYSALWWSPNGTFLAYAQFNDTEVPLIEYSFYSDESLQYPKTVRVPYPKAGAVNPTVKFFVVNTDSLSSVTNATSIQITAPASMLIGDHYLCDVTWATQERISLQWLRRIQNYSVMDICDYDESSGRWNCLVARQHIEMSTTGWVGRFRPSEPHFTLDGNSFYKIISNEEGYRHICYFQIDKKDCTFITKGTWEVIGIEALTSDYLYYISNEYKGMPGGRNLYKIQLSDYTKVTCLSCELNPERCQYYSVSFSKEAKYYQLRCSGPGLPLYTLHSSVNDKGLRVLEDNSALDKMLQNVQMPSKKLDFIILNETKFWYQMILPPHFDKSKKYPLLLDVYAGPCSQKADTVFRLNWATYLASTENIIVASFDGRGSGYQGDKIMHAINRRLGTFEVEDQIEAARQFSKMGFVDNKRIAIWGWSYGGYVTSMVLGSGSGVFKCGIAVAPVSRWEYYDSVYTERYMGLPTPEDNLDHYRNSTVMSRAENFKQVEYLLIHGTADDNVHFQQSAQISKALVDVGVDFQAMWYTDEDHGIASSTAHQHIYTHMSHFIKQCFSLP
Protocol: as §1

| Structure (SMILES) | logP [1] | Kd (FAP protein) | IC50 [2] | IC50 [3] | IC50 [4] | also measured |
| --- | --- | --- | --- | --- | --- | --- |
| CCCCCC(=O)N[C@H]1CCCCn2cc(nn2)CC(C(=O)N[C@@H](CCCCNC(=O)CN2CCN(CC(=O)O)CCN(CC(=O)O)CCN(CC(=O)O)CC2)C(=O)O)NC(=O)[C@H](Cc2ccccc2)NC(=O)[C@H](CCC(N)=O)NC(=O)[C@H]([C@@H](C)O)NC(=O)C2CCCN2C(=O)N[C@@H]2CCCN(C2)C1=O (single isomer, unassigned) [^177Lu -JHDC11, metal not drawn] | -3.65 | – | – | – | – | – |
| CCCCCC(=O)N[C@H]1CCCCn2cc(nn2)CSC[C@@H](C(=O)N[C@@H](CCCCNC(=O)COCCNC(=O)CN2CCN(CC(=O)O)CCN(CC(=O)O)CCN(CC(=O)O)CC2)C(=O)O)NC(=O)[C@H](Cc2ccccc2)NC(=O)[C@H](CCC(N)=O)NC(=O)[C@H]([C@@H](C)O)NC(=O)[C@@H]2CCCN2C(=O)C2CN(C2)C1=O (single isomer, unassigned) [^177Lu -JHDC12, metal not drawn] | -3.81 | – | – | – | – | – |
| CCCCNC(=O)N[C@H]1CSCc2cncc(c2)CSC[C@@H](C(=O)N[C@@H](CCC(=O)NCCN2CCN(C(=O)CN3CCN(CC(=O)O)CCN(CC(=O)O)CCN(CC(=O)O)CC3)CC2)C(=O)O)NC(=O)[C@H](CC2CCCCC2)NC(=O)[C@H](CCC(N)=O)NC(=O)[C@H]([C@@H](C)O)NC(=O)[C@@H]2CCCN2C(=O)C2CN(C2)C1=O (single isomer, unassigned) [^177Lu-JHDC46, metal not drawn] | – | – | – | – | – | Tumor volume (mm^3) (HT1080 2 #; Day 0): 400.31 ± 78.63 mm^3; Tumor volume (mm^3) (HT1080 2 #; Day 2): 483.08 ± 95.00 mm^3; Tumor volume (mm^3) (HT1080 2 #; Day 6): 203.26 ± 49.63 mm^3; Tumor volume (mm^3) (HT1080 2 #; Day 9): 168.29 ± 33.83 mm^3; Tumor volume (mm^3) (HT1080 2 #; Day 13): 313.94 ± 119.95 mm^3; Tumor volume (mm^3) (HT1080 2 #; Day 16): 686.05 ± 297.66 mm^3 |

Second part, led by results:

| logP [1] | Kd (FAP protein) | IC50 [2] | IC50 [3] | IC50 [4] | Structure (SMILES) | also measured |
| --- | --- | --- | --- | --- | --- | --- |
| – | 10 to 100 nM | > 1000 nM | < 10 nM | > 1000 nM | CCCCCC(=O)N[C@H]1CSCc2cccc(c2)CSC[C@@H](C(=O)N[C@@H](CCC(=O)NCCNC(=O)CN2CCN(CC(=O)O)CCN(CC(=O)O)CCN(CC(=O)O)CC2)C(=O)O)NC(=O)[C@H](Cc2ccccc2)NC(=O)[C@H](CCC(N)=O)NC(=O)[C@H]([C@@H](C)O)NC(=O)[C@@H]2CCCN2C(=O)C2CN(C2)C1=O [JHDC23, Hex[Cys(3MeBn)-hhy39-Pro-Thr-Gln-Phe-Cys]-Glu-(EDA-DOTA)-OH] | – |
| – | 10 to 100 nM | > 1000 nM | < 10 nM | > 1000 nM | CCCCNC(=O)N[C@H]1CSCc2cccc(c2)CSC[C@@H](C(=O)N[C@@H](CCC(=O)NCCCC(=O)CN2CCN(CC(=O)O)CCN(CC(=O)O)CCN(CC(=O)O)CC2)C(=O)O)NC(=O)[C@H](Cc2ccccc2)NC(=O)[C@H](CCC(N)=O)NC(=O)[C@H]([C@@H](C)O)NC(=O)[C@@H]2CCCN2C(=O)C2CN(C2)C1=O [JHDC24, nBu-urea-[Cys(3MeBn)-hhy39-Pro-Thr-Gln-Phe-Cys]-Glu-(EDA-DOTA)-OH] ({NHBu-CO}-C[Azetidine3carboxylic]PTQFCE(X1)-OH; linker 1-7 via mXylylene) | – |
